Read-outs that look alike come from different tables or passages of the source.

Data set [1] deals with T1, PARP-1 (Homo sapiens, UniProt P09874).
T1 construct: purchased R&D Systems TA4669
The data set is described as follows: PARP inhibition assay (R&D Systems, Cat. No. TA4669). To be noted: for IC50: R&D assay, recombinant monomeric PARP-1, read-out: IC50 PARP-1 inhibition. The format is biochemical. An excerpt: A PARP inhibition assay from R&D Systems was used (Cat. No. TA4669) according to instructions of the supplier.
Under cellular conditions PARP-1 poly-ADP-ribosylates a host of nuclear proteins, including topoisomerase 1, 14-3-3 g and PARP-1 itself. Thus under cellular conditions, the self-modification of PARP-1 and dimerization are regulating its activity, moreover there is a tight interplay with PARG (poly-ADP-ribosyl-glycohydroxylase).

The test system of data set [2] is D3 embryonic stem (ES) cells, neurons. The data set is described as follows: Cell culture model for chemical ischemia and neuroprotection (calcium imaging). The format is cell-based, mice. As for the experimental part: For all experiments, D3 embryonic stem (ES) cells derived from 129/sv mice [Okabe et al., 1996] were cultivated for 12 days, with passages on days 2, 4, 7 and 9 as described previously [Sommer et al., 2004]. Insult conditions: Cells (24-well plates) were pre-incubated with or without 20 nM EPO in fresh medium for 24 hours at 37° C. Cells were rinsed once with low K^+ solution (140 mM NaCl, 4.7 mM KCl, 1.2 mM KH2PO4, 2.5 mM CaCl2, 1.2 mM MgSO4, 11 mM glucose, 15 mM Hepes-NaOH, pH 7.35). Cells (either with or without EPO pre-incubation) were incubated for up to 45 min (37° C.) with either low K^+ solution or with glucose-free low K^+ solution supplemented with 1 mM KCN (chemical ischemia solution [Kume et al., 2002]). Vitality control to asses numbers of surviving neurons was performed by a brief stimulation with a low dose of glutamate (10 μM). Afterwards, cells were washed three times with ice cold phosphate buffered saline (PBS), and then proteins were harvested. Suspended cells were pelleted at 500×G, and lysed into 9M urea 4% CHAPS. The cell lysate was desalted with a NAP-10 column (Amersham Biosciences), preequilibrated with the same buffer, and protein content was determined.
Functional tests by calcium imaging were performed essentially as described [Sommer et al., 2004]. Briefly, cells were loaded with 2 μM of […] in DMEM for 45 min at 37° C. in the dark. Measurements of relative changes in [Ca^2+] were made on an inverted epifluorescence microscope (Olympus IX70 S1F2) with a Polychrom IV Monochromator (Xe-lamp, USHIO). Excitation wavelengths (λ1, λ2) and the emission wavelength were 340, 380 and 510 nm, respectively. Acquisition and analysis of data after appropriate stimulation were performed by using MetaFluor software (Universal Imaging Corporation). Image resolution was 168×129 pixels (binning 8×8, pixel size 6.8×6.8 μm). Only cells identified as neurons by morphological criteria and occasional immunostaining (not shown) and those whose calcium levels returned to the resting state after the first stimulation were taken into account. Controls included nominal zero calcium (negative) and 5 μM ionomycin (positive), 10 μM glutamate (positive) and depolarisation (55 mM K+) (positive). Pharmacological agents were applied by a multi-valve, single-output focal drug application device (ALA Scientific) with the perfusion system DAD-12. […] During each stimulation event 20 image pairs were acquired.

A further data set deals with iNOS and Cox-2. The data set is described as follows: Cox-2 and iNOS expression after LPS challenge (Western blot). To be noted: LPS 100 ng/ml for 60 min. In kind it is cell-based. As for the experimental part:
(§1) Cell pellets were further investigated by Western blot staining with anti Cox-2 and anti iNOS antibodies of 1D polyacrylamide gels.
(§2) Cell survival was assessed by Trypan Blue staining.
(In general: A western blot detects proteins with antibodies after separation by electrophoresis.)

In data set [3] the test system is neurally differentiated V56 embryonic stem cells. The data set is described as follows: LPS challenge, cell survival by Trypan Blue. The format is cell-based. The conditions noted are these: LPS 100 ng/ml for 60 min. As for the experimental part:
as §1, §2

In the next data set the test system is A 549 cells. The data set can be described thus: LPS challenge, cell survival by Trypan Blue. The conditions noted are these: LPS 100 ng/ml for 60 min. The format is cell-based. As for the experimental part: as §1, §2
Data set [4] concerns undifferentiated V56 embryonic stem cells. The data set can be described thus: LPS challenge, cell survival by Trypan Blue. The conditions noted are these: LPS 100 ng/ml for 60 min. In kind it is cell-based. As for the experimental part:
as §1, §2

A further data set deals with 3T3 fibroblasts. The data set is described as follows: LPS challenge, cell survival by Trypan Blue. The format is cell-based. To be noted: LPS 100 ng/ml for 60 min. As for the experimental part: as §1, §2
Data set [5] is described as follows: Blood-brain-barrier passage: HPLC of plasma and CSF. The conditions noted are these: rat, in vivo. An excerpt:
J. Gastroenterol. 66, 35ff.; Homon et al., 1987, Therapeutic Drug Monitoring 9, 236ff.).

In data set [6] the target is T2, SIR-2 (Mus musculus, UniProt Q923E4).
T2 construct: Using a raw extract from murine embryonic stem cells; host or cells: murine embryonic stem cells (raw extract)
T2 sequence (Q923E4 2-737 limits assumed): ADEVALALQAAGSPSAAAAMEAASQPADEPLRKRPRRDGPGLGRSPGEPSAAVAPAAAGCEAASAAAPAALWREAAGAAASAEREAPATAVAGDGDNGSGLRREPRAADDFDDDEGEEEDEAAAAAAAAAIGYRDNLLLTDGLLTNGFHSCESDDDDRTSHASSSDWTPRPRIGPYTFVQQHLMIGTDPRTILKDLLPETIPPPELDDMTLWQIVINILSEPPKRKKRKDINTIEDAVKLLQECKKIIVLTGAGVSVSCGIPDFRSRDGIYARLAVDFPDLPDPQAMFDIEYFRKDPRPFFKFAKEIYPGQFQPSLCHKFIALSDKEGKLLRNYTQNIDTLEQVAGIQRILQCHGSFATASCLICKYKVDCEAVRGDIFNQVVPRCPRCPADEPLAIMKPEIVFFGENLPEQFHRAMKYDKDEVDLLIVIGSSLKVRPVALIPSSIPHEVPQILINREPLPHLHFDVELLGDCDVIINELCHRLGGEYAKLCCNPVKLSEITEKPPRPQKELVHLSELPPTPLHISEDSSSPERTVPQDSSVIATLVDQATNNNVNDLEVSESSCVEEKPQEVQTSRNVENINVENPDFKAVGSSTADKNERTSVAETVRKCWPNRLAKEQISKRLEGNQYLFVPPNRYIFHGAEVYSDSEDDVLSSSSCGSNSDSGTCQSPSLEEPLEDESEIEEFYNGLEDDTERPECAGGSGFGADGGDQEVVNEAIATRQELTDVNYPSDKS
The data set is described as follows: SIR2 activity assay (CycLex SIR2 Assay kit). The conditions noted are these: control; read-out: IC50 SIR-2 inhibition. The format is biochemical, murine. An excerpt: For measurements of SIR2 activities, the quantitative test kit for NAD-dependent histone deacetylase activity CycLex® SIR2 Assay kit (Cat# CY-1151) was used according to instructions of manufacturer (CycLex Co., Ltd. 1063-103 Ohara, Tera-Sawaoka Ina, Nagano 396-0002 Japan). All substances tested in the SIR assay were cross-checked for their influence on the lysyl-endopeptidase. For this control an already deacetylated substrate peptide was used in order to measure directly lysyl-endopeptidase activity.
For measurements of SIR2 activities, the quantitative test kit for NAD-dependent histone deacetylase activity CycLex® SIR2 Assay kit (Cat# CY-1151) was used according to instructions of manufacturer (CycLex Co., Ltd. 1063-103 Ohara, Tera-Sawaoka Ina, Nagano 396-0002 Japan).

For data set [7], the target named is T3, SIR-2 (Mus musculus, UniProt Q923E4).
T3 construct: endogenous in cells; host or cells: V56 / D3 embryonic stem cells, raw extract
T3 sequence (Q923E4 1-737): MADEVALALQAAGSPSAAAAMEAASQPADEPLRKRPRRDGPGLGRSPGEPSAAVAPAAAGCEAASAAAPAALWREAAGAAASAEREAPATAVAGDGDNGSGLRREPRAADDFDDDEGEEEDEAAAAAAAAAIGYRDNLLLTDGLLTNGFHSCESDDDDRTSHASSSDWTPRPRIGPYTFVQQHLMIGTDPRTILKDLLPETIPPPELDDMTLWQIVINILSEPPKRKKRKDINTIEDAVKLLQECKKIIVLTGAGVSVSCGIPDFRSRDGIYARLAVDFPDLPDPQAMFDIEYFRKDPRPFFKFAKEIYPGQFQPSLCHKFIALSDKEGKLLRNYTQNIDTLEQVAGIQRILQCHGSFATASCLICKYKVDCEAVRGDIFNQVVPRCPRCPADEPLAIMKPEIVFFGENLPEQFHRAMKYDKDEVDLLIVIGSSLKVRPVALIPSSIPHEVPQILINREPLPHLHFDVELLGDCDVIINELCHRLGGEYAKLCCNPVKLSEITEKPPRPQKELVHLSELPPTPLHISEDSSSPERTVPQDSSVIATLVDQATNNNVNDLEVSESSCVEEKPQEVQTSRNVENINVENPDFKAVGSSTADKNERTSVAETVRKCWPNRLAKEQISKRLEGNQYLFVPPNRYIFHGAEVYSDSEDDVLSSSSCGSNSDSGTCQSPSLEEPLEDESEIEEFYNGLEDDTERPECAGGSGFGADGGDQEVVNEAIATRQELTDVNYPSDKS
The data set is described as follows: Affinity enrichment with irreversible pirenzepine affinity tag. In kind it is binding. An excerpt: (§3) A reactive —SCN group is introduced which binds to lysines in or near the binding site of the compound. A biotinylated linker serves for enrichment of bound protein. The synthesis is described in detail co-pending US-application 60/588,354 and 60/620,323 which are herein incorporated by reference. In FIG. 1 a synthesis scheme is depcited. The final product, which was used as affinity reagent is thiocyanato 11-[2-(4-biocytinyl-piperazin-1-yl)-acetyl]-5,11-dihydro-benzo[e]pyrido[3,2-b][1,4]diazepin-6-one, (11).
(§4) The affinity reagent 11 was used to bind the target covalently from fractionations of crude cell extracts of D3 ES cells and other cell lines, subsequently the affinity purified material was analysed by 1D PAGE, immunostaining, and mass spectrometry.
For SIR-2 staining the following antibodies were used: primary Ab: A-SiR 2 (Upstate, biomol 07-131; Lot:22073); 1:5000 in 5% BSA/1×TBST; secondary Ab: A-Rabbit PE(A-0545) 1:1000 in 5% BSA/1×TBST: […]

Data set [8] has as its system PARP-1. The description is as above. The format is binding, mice.
Text: as §3, §4
The subsequent fractionation, isolation and further analysis was performed according to published standard procedures (Sommer et al. 2004). A commercial anti-PARP antibody was used for staining Western blots. Mass spectrometry for independent identification of pirenzepine-tagged proteins was performed as described elsewhere recently (Vogt et al., 2003, Cahill et al., 2003).
A surplus of affinity tag was removed by NAP10 gel filtration. The reaction mixture was bound to streptavidin agarose. Elution occurred with elution buffer (2% SDS, 62.5 mM Tris-pH 6.8) for 10 min at room temperature and 10 min at 95° C. […]

T1 sequence (P09874 whole entry): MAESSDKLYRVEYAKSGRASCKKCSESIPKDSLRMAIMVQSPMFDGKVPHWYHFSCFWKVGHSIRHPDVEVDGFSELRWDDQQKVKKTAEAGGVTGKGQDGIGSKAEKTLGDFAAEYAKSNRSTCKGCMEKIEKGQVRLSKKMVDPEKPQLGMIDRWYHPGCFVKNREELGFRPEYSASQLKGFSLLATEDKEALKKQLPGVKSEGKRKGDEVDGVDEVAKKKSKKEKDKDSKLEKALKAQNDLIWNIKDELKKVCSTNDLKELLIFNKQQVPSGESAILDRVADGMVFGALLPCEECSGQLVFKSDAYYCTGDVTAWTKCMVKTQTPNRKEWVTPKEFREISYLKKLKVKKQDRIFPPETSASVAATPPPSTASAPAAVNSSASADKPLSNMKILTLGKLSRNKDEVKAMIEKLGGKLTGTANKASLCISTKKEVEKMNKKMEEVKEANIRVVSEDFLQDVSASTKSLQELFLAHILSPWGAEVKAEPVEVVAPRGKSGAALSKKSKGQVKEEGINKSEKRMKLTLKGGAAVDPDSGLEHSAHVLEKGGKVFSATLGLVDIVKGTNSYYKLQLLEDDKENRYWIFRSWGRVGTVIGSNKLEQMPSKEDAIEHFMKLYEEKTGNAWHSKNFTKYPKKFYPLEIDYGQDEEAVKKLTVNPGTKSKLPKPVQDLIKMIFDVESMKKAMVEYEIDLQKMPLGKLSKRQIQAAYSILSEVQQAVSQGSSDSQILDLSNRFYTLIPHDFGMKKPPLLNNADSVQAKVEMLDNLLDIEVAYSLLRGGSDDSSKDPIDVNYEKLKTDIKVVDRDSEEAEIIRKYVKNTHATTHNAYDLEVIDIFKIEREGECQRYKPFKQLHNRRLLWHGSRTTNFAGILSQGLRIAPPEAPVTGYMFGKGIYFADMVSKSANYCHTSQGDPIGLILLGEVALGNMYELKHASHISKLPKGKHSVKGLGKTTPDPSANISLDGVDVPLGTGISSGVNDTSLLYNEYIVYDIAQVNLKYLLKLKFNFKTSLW
Chain of PARP-1 (P11103 215-1013 limits assumed): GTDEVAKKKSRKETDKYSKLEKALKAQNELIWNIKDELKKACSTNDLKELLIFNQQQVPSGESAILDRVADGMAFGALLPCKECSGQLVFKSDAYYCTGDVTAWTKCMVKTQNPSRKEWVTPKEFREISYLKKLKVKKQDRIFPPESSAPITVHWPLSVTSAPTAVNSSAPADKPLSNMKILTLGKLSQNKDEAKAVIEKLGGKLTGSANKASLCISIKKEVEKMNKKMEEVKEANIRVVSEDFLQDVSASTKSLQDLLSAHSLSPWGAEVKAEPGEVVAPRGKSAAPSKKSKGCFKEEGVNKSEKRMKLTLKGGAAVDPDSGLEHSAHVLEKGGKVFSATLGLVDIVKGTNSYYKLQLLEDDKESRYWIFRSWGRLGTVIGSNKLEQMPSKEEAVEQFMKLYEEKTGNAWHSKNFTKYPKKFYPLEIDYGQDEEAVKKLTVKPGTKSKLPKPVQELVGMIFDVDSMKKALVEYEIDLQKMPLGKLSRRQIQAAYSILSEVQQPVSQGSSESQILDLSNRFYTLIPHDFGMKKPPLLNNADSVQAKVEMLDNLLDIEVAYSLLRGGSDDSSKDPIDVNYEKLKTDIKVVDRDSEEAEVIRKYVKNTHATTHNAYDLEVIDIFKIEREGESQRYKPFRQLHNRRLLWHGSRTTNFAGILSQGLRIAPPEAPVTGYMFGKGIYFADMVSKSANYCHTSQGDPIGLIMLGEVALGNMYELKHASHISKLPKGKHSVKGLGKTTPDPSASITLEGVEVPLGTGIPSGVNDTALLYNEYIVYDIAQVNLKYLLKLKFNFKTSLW

Regarding `CN1CCN(CC(=O)N2c3ccccc3C(=O)Nc3cccnc32)CC1` [Pirenzepine, 5,11-dihydro-11[(4-methyl-1-piperazinyl)-acetyl]-6H-pyrido-[2,3-b]-[1,4]benzodiazepine-6-one, reference compound], on PARP-1 [1], the “PARP-1 inhibition (in words)” value is on record as “rather weak PARP-1 inhibitor”. Besides, the IC50 (as a rule, the concentration at which inhibition is half-maximal) at PARP-1 [1] was determined as 200 µM. In data set [2] (1 μM, chemical ischemia), the “neuroprotective in vitro effect” value is “prevents neuronal death”. In [2] (after chemical ischemia, 1 μM Pirenzepine (FIG. 2b)), the survival rate was 72.1±4.4%. Also, the “neuroprotective effect under raft-disrupting conditions” value in [2] (β-methyl-cyclodextrin or filipin) is on record as “does not occur”. Also, the “expression of inducible inflammatory markers iNOS and Cox-2” value with iNOS and Cox-2 is recorded as “decreased expression”. Besides, the “protection from LPS challenge” value (in data set [3]; in the data set on A 549 cells; in data set [4]; with 3T3 fibroblasts) was “protect” in each case.

For the molecule `O=C1Nc2cccnc2N(C(=O)CN2CCNCC2)c2ccccc21` [dm-Pirenzepine, desmethyl-Pirenzepine], in [5], the “passage into the brain” value was “virtually no passage”.

Take `NC(=O)c1cccnc1` [nicotine amide, reference compound]: the IC50 at SIR-2 [6] is about 55 µM.

As for `O=c1[nH]c2ccccc2c2ccccc12` [phenanthridone, reference compound], the 50% inhibitory concentration (IC50) at PARP-1 [1] is 7 µM.

As to “thiocyanato 11-[2-(4-biocytinyl-piperazin-1-yl)-acetyl]-5,11-dihydro-benzo[e]pyrido[3,2-b][1,4]diazepin-6-one [pirenzepine-affinity tag]”, the “binding to SIR-2” value at SIR-2 [7] is reported as “irreversibly binds”; on SIR-2 [7] (listed as affinity tag) it was “interacts”. The “interaction with PARP-1” value in the data set on PARP-1 [8] was “interacts”.

For the origin of these results see US8039464B2, “Muscarinic antagonists with PARP and SIR modulating activity as agents for inflammatory diseases” (ProteoSys AG, priority 2004, dated 2011).
